Measured values as given in patent US8975415B2, “Chromane compounds” (CoMentis, Inc., priority 2012, dated 2015).

Molecular target: BACE1 (Homo sapiens (Human), UniProt P56817)
Assay: Measurement of BACE1 inhibition by fluorescence resonance energy transfer (FRET), MCA substrate
Conditions: read-out: Test Example 1 BACE1 MCA Ki; FRET, MCA substrate

BACE1, sequence (P56817 75-416): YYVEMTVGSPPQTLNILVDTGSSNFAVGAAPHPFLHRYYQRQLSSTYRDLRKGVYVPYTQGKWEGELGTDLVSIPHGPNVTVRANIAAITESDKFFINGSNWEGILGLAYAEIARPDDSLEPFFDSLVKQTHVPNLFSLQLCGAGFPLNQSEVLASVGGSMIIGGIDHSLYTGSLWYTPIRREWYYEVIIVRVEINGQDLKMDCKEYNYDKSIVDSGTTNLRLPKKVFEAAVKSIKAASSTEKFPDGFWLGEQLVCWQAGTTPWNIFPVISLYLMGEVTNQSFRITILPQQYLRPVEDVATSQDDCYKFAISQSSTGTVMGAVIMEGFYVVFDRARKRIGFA

SMILES | Ki [µM]
NC1=NC2(CO1)c1cc(NC(=O)c3ccc(Cl)cn3)ccc1OCC21CC1 (stereo not shown) [RP 32] | 0.378

Same assay, conditions: read-out: Test Example 1 IC50; FRET, MCA-SEVNLDAEFK(DNP)-NH2 substrate, pH 4.4

IC50 [µM] | SMILES
81.3 | NC1=NC2(CO1)c1cc(Br)ccc1OC(C1CC1)C21COC1 (single isomer, unassigned) [RP 12b]
138 | NC1=NC2(CO1)c1cc(Br)ccc1OCC21CCCO1 (single isomer, unassigned) [RP 1b, 6′-bromo-4,5-dihydro-3H-dispiro[furan-2,3′-chromene-4′,4″-[1,3]oxazol]-2″-amine]
19.3 | CC(C)CC1Oc2ccc(Br)cc2C2(COC(N)=N2)C12COC2 (single isomer, unassigned) [RP 13b]
59.6 | NC1=NC2(CO1)c1cc(Br)ccc1OCC21COC1 (stereo not shown) [RP 2]
19 | NC1=NC2(CO1)c1cc(Br)ccc1OC(CCC(F)(F)F)C21COC1 (single isomer, unassigned) [RP 14a]
35.4 | Cc1ncccc1-c1ccc2c(c1)C1(COC(N)=N1)C1(COC1)C1(CCC1)O2 (stereo not shown) [RP 74]
61.3 | NC1=NC2(CO1)c1cc(Br)ccc1OCC21CCC1 (stereo not shown) [RP 8]
3.56 | NC1=NC2(CO1)c1cc(-c3ccc(F)nc3)ccc1OC1(CCC1)C21COC1 (stereo not shown) [RP 119]
17.3 | Cc1cccc(CCc2ccc3c(c2)C2(COC(N)=N2)C2(COC2)CO3)c1 (stereo not shown) [RP 38]
50.6 | NC1=NC2(CO1)c1cc(Br)ccc1OCC21CC(F)(F)C1 (stereo not shown) [RP 188]
17.6 | NC1=NC2(CO1)c1cc(-c3cccnc3C(F)(F)F)ccc1OC1(CCC1)C21COC1 (stereo not shown) [RP 212]
15.6 | CCCC1Oc2ccc(Br)cc2C2(C=C(N)OC2)C12COC2 (single isomer, unassigned) [RP 11a]
17.3 | CCC1Oc2ccc(Br)cc2C2(COC(N)=N2)C12COC2 (single isomer, unassigned) [RP 9a]
1.26 | CC1(C)Oc2ccc(-c3cccc(OCC(F)(F)F)c3)cc2C2(COC(N)=N2)C12COC2 (stereo not shown) [RP 143]
40.3 | NC1=NC2(COC1)c1cc(Br)ccc1OCC21CC1 (stereo not shown) [RP 214, 6′-bromo-6″H-dispiro[cyclopropane-1,3′-chromene-4′,3″-[1,4]oxazin]-5″-amine]
3.63 | CC1CC=C(c2ccc3c(c2)C2(COC(N)=N2)C2(COC2)C(C)(C)O3)CC1 (stereo not shown) [RP 166]
0.933 | CCSc1cccc(-c2ccc3c(c2)C2(COC(N)=N2)C2(COC2)C(C)(C)O3)c1 (stereo not shown) [RP 145]
46.9 | NC1=NC2(c3cc(Br)ccc3OCC23CC3)c2cccc(F)c21 (stereo not shown) [RP 40, 6′-bromo-4″-fluorodispiro[cyclopropane-1,3′-chromene-4′,1″-isoindol]-3″-amine]
1.41 | COc1cc(-c2ccc3c(c2)C2(COC(N)=N2)C2(COC2)C(C)(C)O3)c(F)cn1 (stereo not shown) [RP 161]
38.7 | NC1=NC2(CO1)c1cc(Br)ccc1OC(C1CC1)C21COC1 (single isomer, unassigned) [RP 12a]
1.04 | COc1cc(-c2ccc3c(c2)C2(COC(N)=N2)C2(COC2)C(C)(C)O3)c(Cl)cn1 (stereo not shown) [RP 162]
26 | COCCCc1ccc2c(c1)C1(COC(N)=N1)C1(COC1)CO2 (stereo not shown) [RP 35]
68.3 | NC1=NC2(COC1)c1cc(Br)ccc1OCC21COC1 (stereo not shown) [RP 114, 6′-bromo-6H-dispiro[1,4-oxazine-3,4′-chromene-3′,3″-oxetan]-5-amine]
33.8 | NC1=NC2(CO1)c1cc(Br)ccc1OC1(CCC1)C21COC1 (stereo not shown) [RP 3]
55.8 | NC1=NC2(c3cc(Br)ccc3OCC23CC3)C(F)(F)CO1 (stereo not shown) [RP 216, 6′-bromo-5″,5″-difluoro-5″,6″-dihydrodispiro[cyclopropane-1,3′-chromene-4′,4″-[1,3]oxazin]-2″-amine]

SMILES | IC50 [µM]
NC1=NC2(CO1)c1cc(-c3cncnc3)ccc1OC(C1CC1)C21COC1 (stereo not shown) [RP 89] | 4.67

Same assay, conditions: read-out: Test Example 1 inhibition

inhibition at 30 µM [%] | SMILES
47.6 | COc1cnc(C(=O)Nc2ccc3c(c2)C2(COC(N)=N2)C2(COC2)C(C)(C)O3)cn1 (stereo in doubt) [Example 229a, N-[(4S)-2-amino-2′,2′-dimethyldispiro[1,3-oxazole-4,4′-chromene-3′,3″-oxetan]-6′-yl]-5-methoxypyrazine-2-carboxamide]
